Reference: US20260168988A1, “GENETICALLY ENCODED REPORTER EXPRESSION SYSTEMS AND METHODS OF MAKING AND USING SAME” (Duke University, priority 2021, published 2026)
Entries after “also recorded” stand apart in the source; their conditions may differ.

Columns and labels:
Assay type in all cases: cell-based
[1] = test system: METTL3; experiment: m6A sensor system in METTL3 degron cells treated with auxin; conditions: METTL3 degron HEK293T cells, auxin 48 hours, compared to DMSO-treated cells
Description: To confirm that the m^6A sensor is METTL3-dependent, the m^6A sensor system was expressed in HEK293T cells which contain an auxin-inducible degradation tag at the endogenous METTL3 locus (METTL3 degron cells). Cells were treated with auxin for 48 hours and then transfected with the m^6A sensor system. […] Conversely, overexpression of METTL3 causes increased GFP fluorescence, a higher GFP:GFP-DHFR ratio, and increased C-to-U editing of the sensor sequence (FIGS. 5A-5C).

[2] = test system: NMD; experiment: m6A reporter mRNA levels after blocking nonsense-mediated decay (RT-qPCR); conditions: HEK293T cells expressing the m6A sensor system, CHX for 24 h
Description: HEK293T cells expressing the m6A sensor system were treated with CHX for 24 h to inhibit NMD, followed by RT-qPCR of the m^6A reporter mRNA.
The possibility that the m^6A reporter mRNA could be susceptible to nonsense-mediated decay (NMD), since editing of the m6A reporter mRNA produces premature stop codons, was investigated. However, this is unlikely since most NMD requires the presence of the exon junction complex (EJC), and the m^6A reporter transcript lacks introns.

[3] = test system: APO1-YTH; experiment: Inducible APO1-YTH expression in HEK293T stable m6A reporter cell lines; conditions: time courses of dox induction
From the text: HEK293T stable cells were generated which express both the m^6A reporter and APO1-YTH. The m^6A reporter was constitutively expressed from the CMV reporter, while APO1-YTH was inducibly expressed after treatment of cells with doxycycline (dox).
Cyclophilin A (CycloA) is shown as a loading control.
Another embodiment of the present disclosure provides stable cell lines that express the m^6A reporter system as provided herein. To do this, stable cell lines expressing both the m^6A reporter and APO1-YTH were generated by transfecting HEK293T cells with a dual-promoter plasmid encoding both components of the reporter system. This plasmid drives m^6A reporter expression from the CMV promoter and APO1-YTH expression using an inducible […] promoter. However, any dual-promoter system could also be used and different promoters (inducible and constitutive) could also be used with this m^6A reporter system. The m^6A reporter system provided herein may also be applied in other mammalian and non-mammalian cell types as well.
Following selection of stable cells with puromycin resistance which was conferred by genomic integration of the plasmid, it was next sought to confirm that the reporter system works in the context of stable integration of the m^6A reporter and APO1-YTH components. […]

[4] = molecular target: T1, METTL3 (Homo sapiens, UniProt Q86U44); experiment: m6A sensor system in HEK293T cells treated with METTL3 inhibitor; conditions: HEK293T cells expressing the m6A sensor system, after treatment
T1 construct: endogenous in cells; host or cells: HEK293T
T1 sequence (Q86U44 2-580 limits assumed): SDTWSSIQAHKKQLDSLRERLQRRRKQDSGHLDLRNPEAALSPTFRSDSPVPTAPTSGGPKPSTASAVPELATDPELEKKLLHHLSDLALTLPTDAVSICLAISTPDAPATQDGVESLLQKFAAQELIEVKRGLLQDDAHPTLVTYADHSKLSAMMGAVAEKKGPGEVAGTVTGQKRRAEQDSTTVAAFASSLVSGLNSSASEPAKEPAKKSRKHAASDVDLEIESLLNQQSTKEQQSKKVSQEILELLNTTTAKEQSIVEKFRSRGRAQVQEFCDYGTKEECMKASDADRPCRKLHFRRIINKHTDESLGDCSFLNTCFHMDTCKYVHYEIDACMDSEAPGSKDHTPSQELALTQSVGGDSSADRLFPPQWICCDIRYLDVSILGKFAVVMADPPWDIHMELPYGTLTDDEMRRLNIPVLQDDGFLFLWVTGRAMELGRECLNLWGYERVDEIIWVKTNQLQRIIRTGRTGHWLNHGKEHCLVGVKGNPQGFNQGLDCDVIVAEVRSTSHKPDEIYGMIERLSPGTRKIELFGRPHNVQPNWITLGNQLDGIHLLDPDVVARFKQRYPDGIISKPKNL
T1 sequence (Q9HCE5 whole entry partner): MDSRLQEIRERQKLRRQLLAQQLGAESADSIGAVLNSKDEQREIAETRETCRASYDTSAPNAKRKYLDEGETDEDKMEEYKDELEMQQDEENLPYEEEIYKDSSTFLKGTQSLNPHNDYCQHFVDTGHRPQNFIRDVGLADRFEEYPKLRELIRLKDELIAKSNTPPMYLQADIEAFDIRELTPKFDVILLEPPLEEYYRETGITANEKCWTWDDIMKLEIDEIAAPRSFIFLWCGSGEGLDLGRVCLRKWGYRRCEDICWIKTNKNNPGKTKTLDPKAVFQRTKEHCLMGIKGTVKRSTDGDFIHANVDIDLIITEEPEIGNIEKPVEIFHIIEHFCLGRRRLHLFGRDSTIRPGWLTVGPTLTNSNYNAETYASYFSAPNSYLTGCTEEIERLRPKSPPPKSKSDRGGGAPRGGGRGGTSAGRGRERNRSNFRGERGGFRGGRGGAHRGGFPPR

Molecule: O=C(O)Cc1c[nH]c2ccccc12 [auxin]
- C-to-U editing of the m6A sensor sequence (RT-PCR/Sanger sequencing) [1]: decreased C-to-U editing
- GFP:GFP-DHFR ratio (western blot) [1]: reduced GFP:GFP-DHFR ratio
- C-to-U editing of the m6A sensor sequence (RT-PCR/Sanger sequencing) ([1]; listed as Auxin): reduced C-to-U editing
- GFP fluorescence of m6A sensor ([1]; then transfected, assessed 24 hours later): greatly diminished; also recorded: reduced m^6A sensor fluorescence

Molecule: C[C@@H]1C[C@@H]([C@H](O)CC2CC(=O)NC(=O)C2)C(=O)[C@@H](C)C1 [cycloheximide]
- levels of the m6A reporter mRNA (RT-qPCR) [2]: did not cause changes

Molecule: C[C@H]1c2cccc(O)c2C(=O)C2=C(O)[C@]3(O)C(=O)C(C(N)=O)=C(O)[C@@H](N(C)C)[C@@H]3[C@@H](O)[C@@H]21 [doxycycline]
- duration of dox treatment sufficient for APO1-YTH induction and EGFP fluorescence [3]: 24 h

Molecule: STM2457
- C-to-U editing of the m6A sensor sequence (RT-PCR/Sanger sequencing) [4]: lower levels of C-to-U editing; also recorded: reduced C-to-U editing
- GFP fluorescence of m6A sensor system [4]: reduces GFP fluorescence
- GFP protein (Western blot) [4]: reduced GFP protein; also recorded: reduction of GFP expression
